Tests used:
[1] = test system: guinea pigs exposed to noise; experiment: Preventive effect on noise-induced hearing impairment: hearing threshold shift of guinea pigs, drug given two days before noise exposure; format: in vivo
Method: Experiments with Hearing Threshold Shift Sixty-four guinea pigs with normal weight and pure white hair were randomly divided into control group, alpha-lipoic acid group, nimodipine group, and compound preparation group. The guinea pigs were exposed to an octave band of noise (OBN) centered at 4 kHz, 115 dB SPL, 4 h per day. Two days before noise exposure, animals in the study groups were administered with the corresponding drug dose as designed, and those in the control group were administered with normal saline (NS). Hearing threshold shift of the animals was determined at different intervals of noise exposure in different groups. The synergistic effect of alpha-lipoic acid and nimodipine on regulating hearing threshold shift was observed and analyzed using q test.
Being less than 20 dB was considered as an effective value. The synergistic effect of alpha-lipoic acid and nimodipine was analyzed using q test. Pla=2/8 means that there were 8 guinea pigs in the alpha-lipoic acid group, within which 2 were effective, and the remaining 6 were invalid. The mean of the rest was analogous to Pla=2/8.

[2] = test system: guinea pigs exposed to noise; experiment: Therapeutic effect on noise-induced hearing impairment: hearing threshold shift of guinea pigs, drug given intravenously within 7 days after noise exposure; format: in vivo
Method: Eighty guinea pigs with normal weight and pure white hair were randomly divided into control group, alpha-lipoic acid group, nimodipine group, and compound preparation group. The animals were exposed to an octave band of noise (OBN) centered at 4 kHz, 115 dB SPL, 4 h per day. Animals in the study groups were administered intravenously with the corresponding drug dose as designed, and those in the control group were administered with NS within 7 days after noise exposure. Hearing threshold shift of the animals was determined at different intervals of noise exposure in different groups. The synergistic effect of alpha-lipoic acid and nimodipine on regulating hearing threshold shift was observed and analyzed using q test.
Being less than 20 dB was considered as an effective value. The synergistic effect of alpha-lipoic acid and nimodipine was analyzed using q test. Pla=4/10 means that there were 10 guinea pigs in the alpha-lipoic acid group, within which 4 were effective, and the remaining 6 were invalid. The mean of the rest was analogous to Pla=4/10.

COCCOC(=O)C1=C(C)NC(C)=C(C(=O)OC(C)C)C1c1cccc([N+](=O)[O-])c1 (stereo not shown) [NIM, Nimodipine]
Mean change in hearing threshold shift ([1]; NIM 2 mg/kg, at 1st after exposure): 41.0 dB | Mean change in hearing threshold shift ([1]; NIM 2 mg/kg, at 7th day after exposure): 23.5 dB | Mean change in hearing threshold shift ([1]; NIM 4 mg/kg, at 1st after exposure): 38.5 dB | Mean change in hearing threshold shift ([1]; NIM 4 mg/kg, at 7th day after exposure): 24 dB | Mean change in hearing threshold shift ([1]; NIM 8 mg/kg, at 1st after exposure): 38 dB | Mean change in hearing threshold shift ([1]; NIM 8 mg/kg, at 7th day after exposure): 22.0 dB | Mean change in hearing threshold shift ([1]; NIM 16 mg/kg, at 1st after exposure): 36 dB | Mean change in hearing threshold shift ([1]; NIM 16 mg/kg, at 7th day after exposure): 22.0 dB | Mean change in hearing threshold shift ([2]; NIM 2 mg/kg intravenously, 2 weeks after exposure): 23.5 dB | Mean change in hearing threshold shift ([2]; NIM 2 mg/kg intravenously, at 1st day after exposure): 41.0 dB | Mean change in hearing threshold shift ([2]; NIM 4 mg/kg intravenously, 2 weeks after exposure): 24 dB | Mean change in hearing threshold shift ([2]; NIM 4 mg/kg intravenously, at 1st day after exposure): 38.5 dB | Mean change in hearing threshold shift ([2]; NIM 8 mg/kg intravenously, 2 weeks after exposure): 22.0 dB | Mean change in hearing threshold shift ([2]; NIM 8 mg/kg intravenously, at 1st day after exposure): 38 dB | Mean change in hearing threshold shift ([2]; NIM 16 mg/kg intravenously, 2 weeks after exposure): 22.0 dB | Mean change in hearing threshold shift ([2]; NIM 16 mg/kg intravenously, at 1st day after exposure): 36 dB

O=C(O)CCCCC1CCSS1 (stereo not shown) [LA, 1-2 dithiolane-3-pentanoic acid]
Mean change in hearing threshold shift ([1]; LA 80 mg/kg, at 1st after exposure): 32.5 dB | Mean change in hearing threshold shift ([1]; LA 80 mg/kg, at 7th day after exposure): 20.5 dB | P (effective guinea pigs / guinea pigs in group) ([1]; LA 80 mg/kg, effective = mean hearing threshold shift less than 20 dB within 7 days of exposure to noise): Pla = 2/8 | Mean change in hearing threshold shift ([2]; LA 80 mg/kg intravenously, 2 weeks after exposure): 20.5 dB | Mean change in hearing threshold shift ([2]; LA 80 mg/kg intravenously, at 1st day after exposure): 32.5 dB | P (effective guinea pigs / guinea pigs in group) ([2]; LA 80 mg/kg intravenously, effective = mean hearing threshold shift less than 20 dB within 7 days after noise exposure): Pla = 4/10
